In the NIST ThermoML archive (doi:10.1021/je060339m):
Numbers after ± are expanded uncertainties.

Conditions: Liquid

CCCCCOC(C)=O [pentyl ethanoate]
mass density (343.15 K, 25000 kPa): 852.1 ± 6.3 kg/m3 | mass density (343.15 K, 30000 kPa): 857.3 ± 6.9 kg/m3 | mass density (343.15 K, 35000 kPa): 862.7 ± 7.5 kg/m3 | mass density (348.15 K, 100 kPa): 823.2 ± 3.3 kg/m3 | mass density (348.15 K, 1000 kPa): 824.6 ± 3.4 kg/m3 | mass density (348.15 K, 2000 kPa): 825.7 ± 3.5 kg/m3 | mass density (348.15 K, 2700 kPa): 826.5 ± 3.6 kg/m3 | mass density (348.15 K, 3000 kPa): 826.9 ± 3.7 kg/m3 | mass density (348.15 K, 5000 kPa): 828.8 ± 3.9 kg/m3 | mass density (348.15 K, 10000 kPa): 834 ± 4.5 kg/m3 | mass density (348.15 K, 15000 kPa): 838.9 ± 5.1 kg/m3 | mass density (348.15 K, 20000 kPa): 843.5 ± 5.7 kg/m3 | mass density (348.15 K, 25000 kPa): 847.9 ± 6.3 kg/m3 | mass density (348.15 K, 30000 kPa): 853.3 ± 6.9 kg/m3 | mass density (348.15 K, 35000 kPa): 858.8 ± 7.5 kg/m3 | mass density (353.15 K, 100 kPa): 818.7 ± 3.3 kg/m3 | mass density (353.15 K, 1000 kPa): 819.9 ± 3.4 kg/m3 | mass density (353.15 K, 2000 kPa): 821.1 ± 3.5 kg/m3 | mass density (353.15 K, 2700 kPa): 821.9 ± 3.6 kg/m3 | mass density (353.15 K, 3000 kPa): 822.3 ± 3.7 kg/m3 | mass density (353.15 K, 5000 kPa): 824.4 ± 3.9 kg/m3 | mass density (353.15 K, 10000 kPa): 829.8 ± 4.5 kg/m3 | mass density (353.15 K, 15000 kPa): 835 ± 5.1 kg/m3 | mass density (353.15 K, 20000 kPa): 839.7 ± 5.7 kg/m3 | mass density (353.15 K, 25000 kPa): 844.3 ± 6.3 kg/m3 | mass density (353.15 K, 30000 kPa): 849.8 ± 6.9 kg/m3 | mass density (353.15 K, 35000 kPa): 855.4 ± 7.5 kg/m3 | mass density (358.15 K, 100 kPa): 811.3 ± 3.3 kg/m3 | mass density (358.15 K, 1000 kPa): 812.2 ± 3.4 kg/m3 | mass density (358.15 K, 2000 kPa): 813.4 ± 3.5 kg/m3 | mass density (358.15 K, 2700 kPa): 814.1 ± 3.6 kg/m3 | mass density (358.15 K, 3000 kPa): 814.5 ± 3.7 kg/m3 | mass density (358.15 K, 5000 kPa): 816.9 ± 3.9 kg/m3 | mass density (358.15 K, 10000 kPa): 822.5 ± 4.5 kg/m3 | mass density (358.15 K, 15000 kPa): 827.7 ± 5.1 kg/m3 | mass density (358.15 K, 20000 kPa): 832.5 ± 5.7 kg/m3 | mass density (358.15 K, 25000 kPa): 838 ± 6.3 kg/m3 | mass density (358.15 K, 30000 kPa): 843.9 ± 6.9 kg/m3 | mass density (358.15 K, 35000 kPa): 849.7 ± 7.5 kg/m3 | mass density (363.15 K, 100 kPa): 806.3 ± 3.3 kg/m3 | mass density (363.15 K, 1000 kPa): 807.4 ± 3.4 kg/m3 | mass density (363.15 K, 2000 kPa): 808.7 ± 3.5 kg/m3 | mass density (363.15 K, 2700 kPa): 809.6 ± 3.6 kg/m3 | mass density (363.15 K, 3000 kPa): 809.9 ± 3.7 kg/m3 | mass density (363.15 K, 5000 kPa): 812.4 ± 3.9 kg/m3 | mass density (363.15 K, 10000 kPa): 818.1 ± 4.5 kg/m3 | mass density (363.15 K, 15000 kPa): 823.4 ± 5.1 kg/m3 | mass density (363.15 K, 20000 kPa): 828.3 ± 5.7 kg/m3 | mass density (363.15 K, 25000 kPa): 833.9 ± 6.3 kg/m3 | mass density (363.15 K, 30000 kPa): 839.9 ± 6.9 kg/m3 | mass density (363.15 K, 35000 kPa): 845.6 ± 7.5 kg/m3 | mass density (368.15 K, 100 kPa): 801.2 ± 3.3 kg/m3 | mass density (368.15 K, 1000 kPa): 802.3 ± 3.4 kg/m3 | mass density (368.15 K, 2000 kPa): 803.7 ± 3.6 kg/m3 | mass density (368.15 K, 2700 kPa): 804.6 ± 3.6 kg/m3 | mass density (368.15 K, 3000 kPa): 805 ± 3.7 kg/m3 | mass density (368.15 K, 5000 kPa): 807.5 ± 3.9 kg/m3 | mass density (368.15 K, 10000 kPa): 813.4 ± 4.5 kg/m3 | mass density (368.15 K, 15000 kPa): 818.8 ± 5.1 kg/m3 | mass density (368.15 K, 20000 kPa): 824 ± 5.7 kg/m3 | mass density (368.15 K, 25000 kPa): 829.8 ± 6.3 kg/m3 | mass density (368.15 K, 30000 kPa): 835.9 ± 6.9 kg/m3 | mass density (368.15 K, 35000 kPa): 841.4 ± 7.5 kg/m3 | mass density (373.15 K, 100 kPa): 795.5 ± 3.3 kg/m3 | mass density (373.15 K, 1000 kPa): 796.4 ± 3.4 kg/m3 | mass density (373.15 K, 2000 kPa): 797.7 ± 3.6 kg/m3 | mass density (373.15 K, 2700 kPa): 799.5 ± 3.6 kg/m3 | mass density (373.15 K, 3000 kPa): 799 ± 3.7 kg/m3 | mass density (373.15 K, 5000 kPa): 802.5 ± 3.9 kg/m3 | mass density (373.15 K, 10000 kPa): 808.2 ± 4.5 kg/m3 | mass density (373.15 K, 15000 kPa): 813.9 ± 5.1 kg/m3 | mass density (373.15 K, 20000 kPa): 819.8 ± 5.7 kg/m3 | mass density (373.15 K, 25000 kPa): 826.3 ± 6.3 kg/m3 | mass density (373.15 K, 30000 kPa): 831.3 ± 6.9 kg/m3 | mass density (378.15 K, 100 kPa): 790.4 ± 3.3 kg/m3 | mass density (378.15 K, 1000 kPa): 791.6 ± 3.4 kg/m3 | mass density (378.15 K, 2000 kPa): 793.1 ± 3.6 kg/m3 | mass density (378.15 K, 2700 kPa): 794 ± 3.7 kg/m3 | mass density (378.15 K, 3000 kPa): 794.4 ± 3.7 kg/m3 | mass density (378.15 K, 5000 kPa): 797.1 ± 3.9 kg/m3 | mass density (378.15 K, 10000 kPa): 803.5 ± 4.5 kg/m3 | mass density (383.15 K, 100 kPa): 786.8 ± 3.4 kg/m3 | mass density (383.15 K, 1000 kPa): 788.1 ± 3.5 kg/m3 | mass density (383.15 K, 2000 kPa): 789.6 ± 3.6 kg/m3 | mass density (383.15 K, 2700 kPa): 790.7 ± 3.7 kg/m3 | mass density (383.15 K, 3000 kPa): 791.1 ± 3.7 kg/m3 | mass density (383.15 K, 5000 kPa): 793.9 ± 3.9 kg/m3 | mass density (383.15 K, 10000 kPa): 800.5 ± 4.5 kg/m3 | mass density (383.15 K, 15000 kPa): 806.6 ± 5.1 kg/m3 | mass density (383.15 K, 20000 kPa): 811.7 ± 5.8 kg/m3 | mass density (383.15 K, 25000 kPa): 816.5 ± 6.4 kg/m3 | mass density (383.15 K, 30000 kPa): 824 ± 7 kg/m3 | mass density (383.15 K, 35000 kPa): 830 ± 7.6 kg/m3 | mass density (388.15 K, 100 kPa): 781.9 ± 3.4 kg/m3 | mass density (388.15 K, 1000 kPa): 783.4 ± 3.5 kg/m3 | mass density (388.15 K, 2000 kPa): 785 ± 3.6 kg/m3 | mass density (388.15 K, 2700 kPa): 786 ± 3.7 kg/m3 | mass density (388.15 K, 3000 kPa): 786.5 ± 3.7 kg/m3 | mass density (388.15 K, 5000 kPa): 789.4 ± 4 kg/m3 | mass density (388.15 K, 10000 kPa): 796.3 ± 4.6 kg/m3 | mass density (388.15 K, 15000 kPa): 802.5 ± 5.2 kg/m3 | mass density (388.15 K, 20000 kPa): 808.1 ± 5.8 kg/m3 | mass density (388.15 K, 25000 kPa): 813.7 ± 6.4 kg/m3 | mass density (388.15 K, 30000 kPa): 819.7 ± 7 kg/m3 | mass density (388.15 K, 35000 kPa): 826.2 ± 7.6 kg/m3 | mass density (393.15 K, 100 kPa): 777.2 ± 3.4 kg/m3 | mass density (393.15 K, 1000 kPa): 778.7 ± 3.5 kg/m3 | mass density (393.15 K, 2000 kPa): 780.3 ± 3.6 kg/m3 | mass density (393.15 K, 2700 kPa): 781.4 ± 3.7 kg/m3 | mass density (393.15 K, 3000 kPa): 781.9 ± 3.7 kg/m3 | mass density (393.15 K, 5000 kPa): 784.9 ± 4 kg/m3 | mass density (393.15 K, 10000 kPa): 791.9 ± 4.6 kg/m3 | mass density (393.15 K, 15000 kPa): 798.4 ± 5.2 kg/m3 | mass density (393.15 K, 20000 kPa): 803.9 ± 5.8 kg/m3 | mass density (393.15 K, 25000 kPa): 809.7 ± 6.4 kg/m3 | mass density (393.15 K, 30000 kPa): 815.7 ± 7 kg/m3 | mass density (393.15 K, 35000 kPa): 822.2 ± 7.6 kg/m3
